Experimental data reported in ChEMBL document CHEMBL1909046, “DrugMatrix in vitro pharmacology data”.

Legend:
[1] = molecular target: T1, 5-hydroxytryptamine receptor 2C (Homo sapiens, UniProt P28335); assay: DRUGMATRIX: Serotonin (5-Hydroxytryptamine) 5-HT2C radioligand binding (ligand: [3H] Mesulergine); format: cell membranes, CHO-K1, Membrane; details: cho-k1; Not Active = under 50% inhibition at 10 µM
T1 sequence (P28335 whole entry): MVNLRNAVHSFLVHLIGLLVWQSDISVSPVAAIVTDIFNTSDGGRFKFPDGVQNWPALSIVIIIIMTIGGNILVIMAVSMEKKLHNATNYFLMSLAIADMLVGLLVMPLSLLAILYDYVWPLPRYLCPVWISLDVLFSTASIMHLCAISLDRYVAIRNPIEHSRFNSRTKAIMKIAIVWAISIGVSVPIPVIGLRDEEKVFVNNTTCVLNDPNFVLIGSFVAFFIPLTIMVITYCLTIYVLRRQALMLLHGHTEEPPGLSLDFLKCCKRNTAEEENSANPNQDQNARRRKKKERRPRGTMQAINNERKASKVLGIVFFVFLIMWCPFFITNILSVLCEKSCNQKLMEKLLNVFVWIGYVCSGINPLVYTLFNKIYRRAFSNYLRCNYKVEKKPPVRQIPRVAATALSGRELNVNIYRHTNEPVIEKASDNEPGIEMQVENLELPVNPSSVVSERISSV

Adenosine receptor A3 = molecular target: T2, Adenosine receptor A3 (Homo sapiens, UniProt P0DMS8); format: cell membranes, CHO-K1, Membrane; details: cho-k1;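 also: radioligand binding assay with AB-MECA serving as the labeled ligand; in other assays of this panel Not Active means under 50% inhibition at 10 µM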
T2 sequence (P0DMS8 whole entry): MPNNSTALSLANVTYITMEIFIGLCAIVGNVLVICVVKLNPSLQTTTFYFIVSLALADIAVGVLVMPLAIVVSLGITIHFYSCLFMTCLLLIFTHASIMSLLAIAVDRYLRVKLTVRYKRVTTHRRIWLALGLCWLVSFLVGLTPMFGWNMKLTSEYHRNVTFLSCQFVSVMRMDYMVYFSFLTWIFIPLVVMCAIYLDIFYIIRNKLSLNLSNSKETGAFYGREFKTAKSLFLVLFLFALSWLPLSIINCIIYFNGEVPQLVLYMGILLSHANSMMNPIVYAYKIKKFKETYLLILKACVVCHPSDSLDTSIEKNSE

[2] = DRUGMATRIX: GABAA, Flunitrazepam, Central radioligand binding (ligand: [3H] Flunitrazepam); format: cell membranes, Rattus norvegicus, Wistar, Brain, Membrane; details: Not Active = under 50% inhibition at 10 µM
[3] = molecular target: T3, Muscarinic acetylcholine receptor M5 (Homo sapiens, UniProt P08912); format: cell membranes, CHO-K1, Membrane; details: cho-k1; also: in other assays of this panel Not Active means under 50% inhibition at 10 µM
T3 sequence (P08912 whole entry): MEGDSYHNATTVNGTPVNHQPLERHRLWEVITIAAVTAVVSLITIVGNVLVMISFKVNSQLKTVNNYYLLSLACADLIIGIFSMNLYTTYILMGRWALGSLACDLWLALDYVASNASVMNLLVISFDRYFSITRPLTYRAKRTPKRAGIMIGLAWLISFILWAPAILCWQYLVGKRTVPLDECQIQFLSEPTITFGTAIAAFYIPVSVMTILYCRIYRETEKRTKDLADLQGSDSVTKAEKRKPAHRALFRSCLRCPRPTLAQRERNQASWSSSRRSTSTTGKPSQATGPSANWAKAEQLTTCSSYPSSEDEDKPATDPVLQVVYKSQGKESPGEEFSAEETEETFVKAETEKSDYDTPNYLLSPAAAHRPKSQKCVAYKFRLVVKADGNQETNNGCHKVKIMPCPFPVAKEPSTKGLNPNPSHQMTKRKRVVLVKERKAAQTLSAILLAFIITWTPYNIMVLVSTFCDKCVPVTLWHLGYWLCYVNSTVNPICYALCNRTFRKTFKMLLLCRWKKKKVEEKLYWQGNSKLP

GRAMICIDIN
Not Active: IC50 [1] | Ki [1] | IC50 (Adenosine receptor A3) | Ki (Adenosine receptor A3) | IC50 [2] | Ki [2] | IC50 [3] | Ki [3]

NYSTATIN
Not Active: IC50 [1] | Ki [1] | IC50 (Adenosine receptor A3) | Ki (Adenosine receptor A3) | IC50 [2] | Ki [2] | IC50 [3] | Ki [3]
